Laboratory results taken from patent publication US12398154B2, “Azaquinazoline pan-KRas inhibitors” (Mirati Therapeutics, Inc., priority 2020, dated 2025).

Assays:
[1] = target: KRas G12R (Homo sapiens, UniProt P01116, G12R); assay: biochemical;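 also: TR-FRET displacement assay of compound binding to KRas, read after one hour at room temperature, potency from a four-parameter fit of percent-of-control values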
Method: (§1) The ability of a compound to bind to KRas was measured using a TR-FRET displacement assay. […] After a 60-minute incubation at room temperature, the reaction was measured using a BMG LABTECH CLARIO star Plus via TR-FRET. […] The POC values were fit to a 4-parameter IC50 equation and the IC50 value reported.

[2] = tested on: pERK in ASPC1 cells; assay: Inhibition of KRas phosphorylation of ERK (Cisbio HTRF pERK assay); conditions: Homo sapiens, ASPC1, read-out: Inhibition (HTRF IC50) of KRas-mediated Phosphorylation of ERK, AsPC-1
[3] = tested on: pERK in H727 cells; assay: as above; conditions: Homo sapiens, NCI-H727, read-out: Inhibition (HTRF IC50) of KRas-mediated Phosphorylation of ERK, H727
[4] = tested on: pERK in PSN1 cells; assay: as above; conditions: Homo sapiens, PSN1, 3 h, read-out: Inhibition (HTRF IC50) of KRas-mediated Phosphorylation of ERK, PSN1
[5] = target: KRas G12D (Homo sapiens, UniProt P01116, G12D); assay: biochemical;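 also: TR-FRET displacement binding assay on KRas, read after a one-hour incubation at room temperature, IC50 fitted from percent-of-control values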
Method: as §1

[6] = target: KRas G12V (Homo sapiens, UniProt P01116, G12V); assay: biochemical;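 also: KRas binding measured by TR-FRET displacement at room temperature, IC50 fitted from percent of control values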
Method: as §1

[7] = tested on: pERK in HCT116 cells; assay: Inhibition of KRas phosphorylation of ERK (Cisbio HTRF pERK assay); conditions: Homo sapiens, HCT-116, read-out: Inhibition (HTRF IC50) of KRas-mediated Phosphorylation of ERK, HCT116
[8] = tested on: pERK in MKN1 cells; assay: as above; conditions: Homo sapiens, MKN-1, 3 h, read-out: Inhibition (HTRF IC50) of KRas-mediated Phosphorylation of ERK, MKN1
[9] = target: KRas G12C (Homo sapiens, UniProt P01116, G12C); assay: biochemical;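 also: binding to KRas assessed by TR-FRET displacement after one hour incubation at room temperature, potency fitted from percent-of-control values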
Method: as §1

[10] = target: KRas WT (Homo sapiens, UniProt P01116); assay: biochemical;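 also: binding to KRas read as TR-FRET displacement after a one-hour room-temperature incubation, IC50 derived from percent-of-control values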
Chain of KRas WT (P01116 1-169 isoform P01116-2): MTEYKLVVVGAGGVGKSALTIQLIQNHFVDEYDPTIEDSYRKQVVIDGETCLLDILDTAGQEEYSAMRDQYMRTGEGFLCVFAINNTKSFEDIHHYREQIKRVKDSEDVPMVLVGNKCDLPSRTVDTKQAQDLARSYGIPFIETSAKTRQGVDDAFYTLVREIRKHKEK
Method: as §1

Chain of KRas G12R (P01116 1-169 isoform P01116-2 G12R): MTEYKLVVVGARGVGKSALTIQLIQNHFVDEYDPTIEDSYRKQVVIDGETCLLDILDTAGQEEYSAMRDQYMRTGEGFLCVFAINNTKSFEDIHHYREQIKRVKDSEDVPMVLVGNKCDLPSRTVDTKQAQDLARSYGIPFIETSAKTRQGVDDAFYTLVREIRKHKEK
Chain of KRas G12D (P01116 1-169 isoform P01116-2 G12D): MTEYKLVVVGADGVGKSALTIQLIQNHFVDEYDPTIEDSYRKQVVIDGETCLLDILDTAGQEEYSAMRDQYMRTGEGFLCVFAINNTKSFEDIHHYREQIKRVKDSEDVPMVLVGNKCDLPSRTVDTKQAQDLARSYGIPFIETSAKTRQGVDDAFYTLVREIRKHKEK
Chain of KRas G12V (P01116 1-169 isoform P01116-2 G12V): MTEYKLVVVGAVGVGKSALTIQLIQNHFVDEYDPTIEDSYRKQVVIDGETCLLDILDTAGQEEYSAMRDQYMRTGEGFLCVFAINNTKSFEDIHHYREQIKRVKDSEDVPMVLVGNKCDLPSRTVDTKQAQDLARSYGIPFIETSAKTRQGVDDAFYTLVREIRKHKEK
Chain of KRas G12C (P01116 1-169 isoform P01116-2 G12C): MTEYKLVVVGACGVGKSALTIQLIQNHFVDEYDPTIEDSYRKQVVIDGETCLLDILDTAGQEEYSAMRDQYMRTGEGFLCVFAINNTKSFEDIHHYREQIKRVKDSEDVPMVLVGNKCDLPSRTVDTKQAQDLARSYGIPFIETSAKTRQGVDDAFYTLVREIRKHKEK

IC50 [1] [nM] | IC50 [2] [nM] | IC50 [3] [nM] | IC50 [4] [nM] | IC50 [5] [nM] | IC50 [6] [nM] | IC50 [7] [nM] | IC50 [8] [nM] | IC50 [9] [nM] | IC50 [10] [nM] | SMILES
5 | 603 | 2110 | ≥ 10000 | ≤ 2 | ≤ 2 | 9190 | 425 |  |  | CCc1c(F)ccc2cc(O)cc(-c3ncc4c(N5CCCn6nc(C(=O)N(C)C)cc6C5)nc(OCC5(CN(C)C)CC5)nc4c3F)c12 [Example 333, 5-(2-((1-((dimethylamino)methyl)cyclopropyl)methoxy)-7-(8-ethyl-7-fluoro-3-hydroxynaphthalen-1-yl)-8-fluoropyrido[4,3-d]pyrimidin-4-yl)-N,N-dimethyl-5,6,7,8-tetrahydro-4H-pyrazolo[1,5-a][1,4]diazepine-2-carboxamide]
5 | 514 | 395 | 1840 | 3 | 3 | 438 | 49 |  |  | CCc1c(F)ccc2cc(O)cc(-c3ncc4c(N5CCOCC6(C5)NC(=O)NC6=O)nc(OC[C@@]56CCCN5C[C@H](F)C6)nc4c3F)c12 (stereo partly drawn) [Example 337, 10-(7-(8-ethyl-7-fluoro-3-hydroxynaphthalen-1-yl)-8-fluoro-2-(((2R,7aS)-2-fluorohexahydro-1H-pyrrolizin-7a-yl)methoxy)pyrido[4,3-d]pyrimidin-4-yl)-7-oxa-1,3,10-triazaspiro[4.6]undecane-2,4-dione]
4 | 695 | 377 | 2880 | ≤ 2 | 3 | 487 | 24 |  |  | CCc1c(F)ccc2cc(O)cc(-c3ncc4c(N5CCCCC6(C5)NC(=O)NC6=O)nc(OC[C@@]56CCCN5C[C@H](F)C6)nc4c3F)c12 (stereo partly drawn) [Example 338, 7-(7-(8-ethyl-7-fluoro-3-hydroxynaphthalen-1-yl)-8-fluoro-2-(((2R,7aS)-2-fluorotetrahydro-1H-pyrrolizin-7a(5H)-yl)methoxy)pyrido[4,3-d]pyrimidin-4-yl)-1,3,7-triazaspiro[4.6]undecane-2,4-dione]
≤ 2 | 472 | 1040 | ≥ 10000 | ≤ 2 | 3 | 1320 | 86 |  |  | CCc1c(F)ccc2cc(O)cc(-c3ncc4c(N5CCCn6nc(CO)cc6C5)nc(OC[C@@]56CCCN5C[C@H](F)C6)nc4c3F)c12 [Example 341, 5-ethyl-6-fluoro-4-(8-fluoro-2-(((2R,7aS)-2-fluorohexahydro-1H-pyrrolizin-7a-yl)methoxy)-4-(2-(hydroxymethyl)-7,8-dihydro-4H-pyrazolo[1,5-a][1,4]diazepin-5(6H)-yl)pyrido[4,3-d]pyrimidin-7-yl)naphthalen-2-ol]
≤ 2 | 275 | 273 | ≥ 10000 | 6 | 3 | 245 | 7 |  |  | CCc1c(F)ccc2cc(O)cc(-c3ncc4c(N5CCCC(N6CCCS6(=O)=O)C5)nc(OC[C@@]56CCCN5C[C@H](F)C6)nc4c3F)c12 (stereo partly drawn) [Example 348, 2-(1-(7-(8-ethyl-7-fluoro-3-hydroxynaphthalen-1-yl)-8-fluoro-2-(((2R,7aS)-2-fluorotetrahydro-1H-pyrrolizin-7a(5H)-yl)methoxy)pyrido[4,3-d]pyrimidin-4-yl)piperidin-3-yl)isothiazolidine 1,1-dioxide]
7 | 475 | 1860 | ≥ 10000 | 20 | 4 | 2250 | 149 |  |  | CCc1c(F)ccc2cc(O)cc(-c3ncc4c(NC5CCS(=O)(=O)C5)nc(OC[C@@]56CCCN5C[C@H](F)C6)nc4c3F)c12 (stereo partly drawn) [Example 349, 3-((7-(8-ethyl-7-fluoro-3-hydroxynaphthalen-1-yl)-8-fluoro-2-(((2R,7aS)-2-fluorotetrahydro-1H-pyrrolizin-7a(5H)-yl)methoxy)pyrido[4,3-d]pyrimidin-4-yl)amino)tetrahydrothiophene 1,1-dioxide]
8 | 241 | 334 | ≥ 10000 | 30 | 8 | 797 | 209 |  |  | CCc1c(F)ccc2cc(O)cc(-c3ncc4c(N5CC6CCC(C6)C5)nc(OC[C@@]56CCCN5C[C@H](F)C6)nc4c3F)c12 [Example 350, 4-(4-(3-azabicyclo[3.2.I]octan-3-yl)-8-fluoro-2-(((2R,7aS)-2-fluorohexahydro-1H-pyrrolizin-7a-yl)methoxy)pyrido[4,3-d]pyrimidin-7-yl)-5-ethyl-6-fluoronaphthalen-2-ol]
≤ 2 | 345 | 782 | 4100 | ≤ 2 | ≤ 2 | 576 | 60 |  |  | CCc1c(F)ccc2cc(O)cc(-c3ncc4c(N5CCCC6(C5)NC(=O)NC6=O)nc(OCC5(CN(C)C)CC5)nc4c3F)c12 (stereo not shown) [Example 359, 7-(2-((1-((dimethylamino)methyl)cyclopropyl)methoxy)-7-(8-ethyl-7-fluoro-3-hydroxynaphthalen-1-yl)-8-fluoropyrido[4,3-d]pyrimidin-4-yl)-1,3,7-triazaspiro[4.5]decane-2,4-dione]
≤ 2 | 505 | 244 | ≥ 10000 | ≤ 2 | ≤ 2 | 375 | 58 |  |  | CCc1c(F)ccc2cc(O)cc(-c3ncc4c(NCC5CC(=O)NC5=O)nc(OC[C@@]56CCCN5C[C@H](F)C6)nc4c3F)c12 (stereo partly drawn) [Example 367, 3-(((7-(8-ethyl-7-fluoro-3-hydroxynaphthalen-1-yl)-8-fluoro-2-(((2R,7aS)-2-fluorohexahydro-1H-pyrrolizin-7a-yl)methoxy)pyrido[4,3-d]pyrimidin-4-yl)amino)methyl)pyrrolidine-2,5-dione]
21 | ≥ 20000 |  | ≥ 10000 | 23 | 11 | 741 | 282 | 16 | 5 | CCc1c(F)ccc2cc(O)cc(-c3ncc4c(N5CCN6C(=O)NC(=O)C6C5)nc(OC[C@@]56CCCN5C[C@H](F)C6)nc4c3F)c12 (stereo partly drawn) [Example 381, 7-(7-(8-ethyl-7-fluoro-3-hydroxynaphthalen-1-yl)-8-fluoro-2-(((2R,7aS)-2-fluorohexahydro-1H-pyrrolizin-7a-yl)methoxy)pyrido[4,3-d]pyrimidin-4-yl) tetrahydroimidazo[1,5-a]pyrazine-1,3(2H,5H)-dione]
3 | 1180 | 1370 | 6020 | ≤ 2 | 3 | 2250 | 336 |  |  | C#Cc1c(F)ccc2cc(O)cc(-c3ncc4c(N5CCCC6(CNC6=O)C5)nc(OC[C@@]56CCCN5C[C@H](F)C6)nc4c3F)c12 (stereo partly drawn) [Example 392, 6-(7-(8-ethynyl-7-fluoro-3-hydroxynaphthalen-1-yl)-8-fluoro-2-(((2R,7aS)-2-fluorohexahydro-1H-pyrrolizin-7a-yl)methoxy)pyrido[4,3-d]pyrimidin-4-yl)-2,6-diazaspiro[3.5]nonan-1-one]
≤ 2 | 903 | 1000 |  | ≤ 2 | ≤ 2 | 1460 |  |  |  | C#Cc1c(F)ccc2cc(O)cc(-c3ncc4c(N5CCCC6(C5)NC(=O)NC6=O)nc(OC[C@@]56CCCN5C[C@H](F)C6)nc4c3F)c12 (stereo partly drawn) [Example 397, 7-(7-(8-ethynyl-7-fluoro-3-hydroxynaphthalen-1-yl)-8-fluoro-2-(((2R,7aS)-2-fluorohexahydro-1H-pyrrolizin-7a-yl)methoxy)pyrido[4,3-d]pyrimidin-4-yl)-1,3,7-triazaspiro[4.5]decane-2,4-dione]
≤ 2 | 162 | 253 | 9960 | ≤ 2 | ≤ 2 | 1150 | 82 |  |  | OCC1COCCN(c2nc(OC[C@@]34CCCN3C[C@H](F)C4)nc3c(F)c(-c4cc(O)cc5ccc(F)c(Br)c45)ncc23)C1 (stereo partly drawn) [Example 401, 5-bromo-6-fluoro-4-(8-fluoro-2-(((2R,7aS)-2-fluorohexahydro-1H-pyrrolizin-7a-yl)methoxy)-4-(6-(hydroxymethyl)-1,4-oxazepan-4-yl)pyrido[4,3-d]pyrimidin-7-yl)naphthalen-2-ol]
